Measured values as given in patent US20230227838A1, “ENHANCED CELL SURVIVAL AGAINST BIOTIC AND ABIOTIC STRESSES THROUGH SALICYLICK ACID-INDUCED NPR1 CONDENSATES” (priority 2020, published 2023).

Assays:
[1] = system: Psm ES4326/AvrRpt2-mediated cell death; test: Cell death (conductivity/electrolyte leakage, trypan blue) after Psm ES4326/AvrRpt2 inoculation; assay type: in vivo, Arabidopsis thaliana; settings: SA pretreatment at 0.5 and 1 mM; WT plants, not in npr1-2 mutant
Experimental: (§1) Chemical treatment, pathogen infection and cell death assays. […] At 2 days, the bacterial colonies were scored.
Trypan blue staining. Leaves of three-week-old Arabidopsis infected with Psm ES4326/AvrRpt2 were sampled at 1 dpi, boiled in 95% ethanol until completely bleached, followed by boiling for 3 min in a 1:1 mixture of 95% ethanol and staining solution (10 ml lactic acid, 10 ml glycerol, 10 g phenol and 10 mg trypan blue, dissolved in 10 ml DDW). The leaves were then de-stained in 2.5 g/ml chloral hydrate solution and transferred to 70% glycerol for subsequent imaging.

[2] = system: EDS1; test: Stability (cycloheximide) and ubiquitination of EDS1; assay type: in vivo, Arabidopsis thaliana; settings: WT
Experimental: as §1
Protein analysis and IP. Recombinant protein analysis was performed using transient expression in N. benthamiana, or stable over-expression in transgenic Arabidopsis, or expression in E. coli. Total protein extraction from plants was performed by homogenizing leaf tissue in the plant extraction buffer [50 mM Tris-HCl (pH 7.5), 150 mM NaCl, 5 mM EDTA, 0.2% Triton X-100, 0.2% Nonidet P-40] supplemented with 1 mM PMSF, 100 μM MG132, and EDTA-free protease inhibitor cocktail (Roche). For ubiquitinated protein analysis in plants, 100 μM of DUB (deubiquitinase) inhibitor (LifeSensors) and 10 mM NEM were added. Next, the lysates were cleared by centrifugation at 14,000 rpm for 15 min followed by filtering through a 0.2 μm filter. […] Pull-downs or IP experiments were done on total protein extracts by incubating protein samples in the lysis buffer overnight with indicated affinity tag or antibody conjugated to agarose or magnetic beads: GFP-trap agarose beads (Chromotek) for GFP fusions; RFP-trap agarose beads (Chromotek) for mCherry fusions; anti-HA magnetic beads (ThermoFisher) for HA tag fusions; anti-DYKDDDDK coupled magnetic agarose (ThermoFisher) for FLAG tag fusions; and glutathione magnetic agarose (ThermoFisher) for GST fusions. […]

[3] = system: ETI activated by RPS4; test: Cell death after Pf Pf0-1/AvrRps4 inoculation (conductivity assay); assay type: in vivo, Arabidopsis thaliana; settings: SA/NPR1-mediated
Excerpt: as §1

[4] = system: cell death induced by heat shock, oxidative and DNA damage stresses; settings: 1 mM SA 24 hr before stress; WT, not in npr1-2
Experimental: (§2) Chemical treatment, pathogen infection and cell death assays. For soil-grown Arabidopsis plants, SA treatment was carried out with spray at indicated concentrations. For seedlings grown vertically on solid 1/2 MS medium for 10-12 days, SA […] treatment (1 mM), with or without the proteasome inhibitor MG132 (50 μM), and protein synthesis […] inhibitor cycloheximide (100 μM) was done by submerging them in solutions for indicated periods. Unless otherwise stated, in N. benthamiana, SA treatment was done by infiltrating leaves 24 hr after agroinfiltration. SA pre-treatment of mature Arabidopsis was done by spray 24 hr before bacterial infection or cell death induction. For bacterial infections, Pseudomonas syringae pv. maculicola ES4326 carrying AvrRpt2 or AvrRpm1 effectors, and Pf Pf0-1 carrying functional AvrRps4 or non-functional AvrRps4KRVY-AAAA effectors were grown for 2 days on solid King's B medium supplemented with appropriate antibiotics. […] Bacteria were pressure infiltrated into mature leaves of three-week-old Arabidopsis plants and cell death or bacterial growth were assessed at indicated times post inoculation (hpi, hours post inoculation; dpi, days post inoculation). […]

[5] = system: cell death triggered by in planta expression of the effector, AvrRpt2; settings: SA treatment before dexamethasone induction
Experimental: as §2

O=C(O)c1ccccc1O [SA, salicylic acid]
Psm ES4326/AvrRpt2-mediated cell death [1]: fully suppress | ubiquitination of EDS1 ([2]; 1 mM SA for 6 hr, not in npr1-2 nor eds1-2): increased SA-mediated ubiquitination of EDS1 | amount of EDS1 in the absence of new protein synthesis ([2]; 1 mM SA 4 hr then 100 μM cycloheximide, 16 hours co-incubation, unchanged in npr1-2): significantly decreased | ETI activated by RPS4 (effector AvrRps4) [3]: inhibition | cell death induced by heat shock, oxidative and DNA damage stresses [4]: significantly suppressed cell death | cell death triggered by in planta expression of AvrRpt2 [5]: protect against cell death
